# According to US5760072A, “Paclitaxel prodrugs, method for preparation as well as their use in selective chemotherapy” (Pharmachemie B.V., priority 1995, dated 1998):
# Where a name gives a salt, the structure may show the parent alone.
# Tests used:
# OVCAR-3 cells [1] = experiment: In vitro cytotoxicity (anti-proliferative effect) with excess human β-glucuronidase, sulforhodamine B protein dye stain; assay type: cell-based; settings: OVCAR-3, with β-glucuronidase
# Description: (§1) The anti-proliferative effects of paclitaxel, and the prodrugs 1, 2a and 2b on OVCAR-3 cells were determined by measuring the cell growth with a protein dye stain (H. J. Haisma et al. Cell Biophysics 1994, 24/25, 185-192). Cells were seeded in 96-well tissue culture plates (5000 cells/well) and 24 h later (pro)drugs 1, 2a, 2b or 3 were added with or without excess human β-glucuronidase. After 72 hours the cells were fixed with 25% trichloroacetic acid, stained with 0.4% sulforhodamine B, washed with 1% acetic acid and air-dried. The bound dye was then solubilized with 10 mM Tris and the absorbance read at 492 nm. The antiproliferative effects were expressed as IC50 values, which are the (pro)drug concentrations that gave 50% growth inhibition when compared to control cell growth.
# human β-glucuronidase = biological target: T1, human β-glucuronidase (Homo sapiens, UniProt P08236); experiment: Enzyme catalyzed hydrolysis of prodrug by human β-glucuronidase, HPLC; assay type: biochemical; settings: for ratio prodrug/paclitaxel: 37° C., pH=6.8, HPLC peak areas; for intermediates (spacer attached to paclitaxel, compounds 5 and 7b) during enzyme catalyzed hydrolysis / enzymatic hydrolysis rate / paclitaxel found in experiment without human β-glucuronidase: in words; for enzymatic hydrolysis rate: appropriate enzyme; for paclitaxel found in experiment without human β-glucuronidase: no enzyme, PBS pH=6.8, 37° C., up to 180 min; for half life of hydrolysis by β-glucuronidase: prodrug 100 μM, enzyme 10 μg mL^-1
# T1 construct: lysosomal homotetramer
# T1 sequence (P08236 23-651): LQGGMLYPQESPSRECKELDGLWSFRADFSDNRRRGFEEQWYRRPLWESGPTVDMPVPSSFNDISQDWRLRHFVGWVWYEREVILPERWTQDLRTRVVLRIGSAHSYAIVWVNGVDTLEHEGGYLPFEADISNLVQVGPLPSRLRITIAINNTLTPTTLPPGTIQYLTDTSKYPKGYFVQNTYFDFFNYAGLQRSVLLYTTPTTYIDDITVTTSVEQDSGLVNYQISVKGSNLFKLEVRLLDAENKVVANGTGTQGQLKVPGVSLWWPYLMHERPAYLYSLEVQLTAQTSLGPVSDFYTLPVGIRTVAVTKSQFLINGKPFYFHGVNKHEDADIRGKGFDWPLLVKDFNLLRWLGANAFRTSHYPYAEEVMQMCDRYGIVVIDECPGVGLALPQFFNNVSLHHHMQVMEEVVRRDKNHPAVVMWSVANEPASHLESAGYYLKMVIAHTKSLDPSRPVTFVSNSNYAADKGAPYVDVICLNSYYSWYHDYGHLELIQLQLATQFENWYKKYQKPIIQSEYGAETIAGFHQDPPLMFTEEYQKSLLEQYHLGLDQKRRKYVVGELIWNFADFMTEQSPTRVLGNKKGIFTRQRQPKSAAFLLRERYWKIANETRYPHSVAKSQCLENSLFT
# Description: To 140 μL PBS buffer (pH=6.8) was added 20 μL of a 1 mM solution of prodrug 1 in PBS buffer (pH=6.8) and 20 μL of 1% bovine serum albumin also in PBS buffer (pH=6.8). After incubation of the mixture for 10 min. at 37° C. 20 μL of a solution of 0.1 mg mL^-1 human β-glucuronidase (H. J. Haisma, Hybridoma, in press) was added. Directly after the addition of the enzyme to the reaction mixture an aliquot of 10 μL was taken and diluted with 90 μL cold acetonitrile (-20° C.) in order to stop the enzyme reaction. The reaction mixture was incubated for 3 hr at 37° C. and samples were taken at 15, 30, 45, 60, 90, 120 and 180 min. All samples were quenched by dilution with cold acetonitrile (-20° C.). […] In the later experiment also samples of 10 μL were taken at 0, 15, 30, 45, 60, 90, 120 and 180 min and were also diluted with cold acetonitrile (-20° C.). The samples of both experiments were analyzed by HPLC (C^18 reverse phase column, eluent: gradient of 10% acetonitrile in water to 90% acetonitrile in water, detection at 226 nm). The ratio of prodrug 1 to paclitaxel as shown in table 1 is determined by measuring the peak areas of the appropriate signals. […] All experiments were carried out in duplo.
# 20 μL of 1 mM solution of prodrug 2b in PBS buffer (pH=6.8) and 20 μL 1% bovine serum albumin also in PBS buffer (pH=6.8) was added to 140 μL PBS buffer (pH=6.8). Subsequently, the mixture was incubated for 10 min. at 37° C. whereafter 20 μL of a solution of 0.1 mg mL^-1 human β-glucuronidase (H. J. Haisma, Hybridoma, in press) was added and the reaction mixture was incubated at 37° C. Samples were taken and quenched at 0, 15, 30, 45, 60, 90, 120 and 180 min as described above for the enzyme assay of prodrug 1. In order to determine that the hydrolysis was caused by β-glucuronidase, another experiment was carried out without addition of β-glucuronidase as described above in example 7. The samples were analyzed as described for example 7 (vide supra). The ratios presented in table 2, are based on peak areas of the appropriate signals. […] All experiment were carried out in duplo.
# Solubility in water = assay type: physicochemical; settings: for solubility in water compared with parent drug paclitaxel: in words; for solubility: water, read-out: Concentrations reached in water
# Description: Concentrations of 10 mM in water and higher were reached whereas the solubility of paclitaxel is lower as […] in water (K. C. Nicolaou et al., Nature, 1993, 364, 464-466).
# OVCAR-3 cells [2] = experiment: In vitro cytotoxicity (anti-proliferative effect) without β-glucuronidase, sulforhodamine B protein dye stain; assay type: cell-based; settings: for ratio IC50 prodrug/IC50 paclitaxel: OVCAR-3, without β-glucuronidase; for cytotoxicity compared with parent drug paclitaxel: in words
# Description: as §1
# [3] = Stability assay in PBS buffer pH 6.8, 37° C., HPLC; assay type: physicochemical; settings: for ratio of prodrug/paclitaxel: PBS pH=6.8, 37° C., HPLC peak areas; for stability in PBS buffer: in words, PBS pH=6.8
# Description: The prodrugs in examples 1 and 2b were all stable in PBS buffer (PBS buffer=NaCl (8 g/L), KCl (0.2 g/L), Na2 HPO4 (1.15 g/L), KH2 PO4 (0.2 g/L), pH=6.8, see example 4 and 5).
# To 3.0 mL PBS buffer, pH=6.8, was added 0.37 mg of prodrug 2b (0.30 μmol). The mixture was placed in a water bath of 37° C. […] The ratios are based on peak areas.
# In 1.1 mL PBS buffer, pH=6.8, was dissolved 0.13 mg of prodrug 2a (0.11 μmol) and placed in a water bath of 37° C. […] The ratios are based on peak areas.
# [4] = K. C. Nicolaou et al., Nature, 1993, 364, 464-466; cited from earlier work
SMILES,ratio IC50 activated prodrug with β-glucronidase/IC50 paclitaxel (OVCAR-3 cells [1]),ratio prodrug/paclitaxel (human β-glucuronidase; 0 min),ratio prodrug/paclitaxel (human β-glucuronidase; 15 min),ratio prodrug/paclitaxel (human β-glucuronidase; 30 min),ratio prodrug/paclitaxel (human β-glucuronidase; 45 min),ratio prodrug/paclitaxel (human β-glucuronidase; 60 min),ratio prodrug/paclitaxel (human β-glucuronidase; 90 min),ratio prodrug/paclitaxel (human β-glucuronidase; 120 min),ratio prodrug/paclitaxel (human β-glucuronidase; 180 min),"intermediates (spacer attached to paclitaxel, compounds 5 and 7b) during enzyme catalyzed hydrolysis (human β-glucuronidase)",enzymatic hydrolysis rate (human β-glucuronidase),paclitaxel found in experiment without human β-glucuronidase (human β-glucuronidase),half life of hydrolysis by β-glucuronidase (human β-glucuronidase),solubility in water compared with parent drug paclitaxel (Solubility in water),solubility (Solubility in water),ratio IC50 prodrug/IC50 paclitaxel (OVCAR-3 cells [2]),cytotoxicity compared with parent drug paclitaxel (OVCAR-3 cells [2]),ratio of prodrug/paclitaxel ([3]; 48 hr),stability in PBS buffer [3],also measured
"CC(=O)O[C@H]1C(=O)[C@@]2(C)[C@H]([C@H](OC(=O)c3ccccc3)[C@]3(O)C[C@H](OC(=O)[C@H](OC(=O)CC(C)(C)CNC(=O)O[C@@H]4O[C@H](C(=O)O)[C@@H](O)[C@H](O)[C@H]4O)[C@@H](NC(=O)c4ccccc4)c4ccccc4)C(C)=C1C3(C)C)[C@]1(OC(C)=O)CO[C@@H]1C[C@@H]2O [Prodrug 1, N-[paclitaxel-2'-O-3,3-dimethyl butanoate]-O-[β-glucuronyl] carbamate sodium salt]",3,99/1,95/5,93/7,87/13,78/22,61/39,43/57,33/67,no intermediates,quite fast hydrolyzing rates,no paclitaxel was found,about 2 hr,far more better soluble in water as the parent drug paclitaxel,≥ 10 mM,90,less cytotoxic as the parent drug,92/8,stable,–
"CC(=O)O[C@H]1C(=O)[C@@]2(C)[C@H]([C@H](OC(=O)c3ccccc3)[C@]3(O)C[C@H](OC(=O)[C@H](OC(=O)Cc4ccccc4NC(=O)O[C@@H]4O[C@H](C(=O)O)[C@@H](O)[C@H](O)[C@H]4O)[C@@H](NC(=O)c4ccccc4)c4ccccc4)C(C)=C1C3(C)C)[C@]1(OC(C)=O)CO[C@@H]1C[C@@H]2O [Prodrug 2a, N-[paclitaxel-2'-O-(2-amino) phenylacetate]-O-[β-glucuronyl] carbamate sodium salt]",1,–,–,–,–,–,–,–,–,–,–,–,–,far more better soluble in water as the parent drug paclitaxel,≥ 10 mM,1,about as cytotoxic as paclitaxel,–,not stable,"ratio of prodrug/paclitaxel ([3]; 3 hr): 55/45; ratio of prodrug/paclitaxel ([3]; 22 hr): 1/99; half-life ([3]; pbs buffer, pH 6.8, read-out: half time of decomposition to paclitaxel (converted)): 3 h"
"CC(=O)O[C@H]1C(=O)[C@@]2(C)[C@H]([C@H](OC(=O)c3ccccc3)[C@]3(O)C[C@H](OC(=O)[C@H](OC(=O)CCc4ccccc4NC(=O)O[C@@H]4O[C@H](C(=O)O)[C@@H](O)[C@H](O)[C@H]4O)[C@@H](NC(=O)c4ccccc4)c4ccccc4)C(C)=C1C3(C)C)[C@]1(OC(C)=O)CO[C@@H]1C[C@@H]2O [Prodrug 2b, N-[paclitaxel-2'-O-(2-amino)phenylpropionate]-O-[β-glucuronyl] carbamate sodium salt]",5,99/1,87/13,74/26,55/45,41/59,24/76,20/80,15/85,no intermediates,quite fast hydrolyzing rates,no paclitaxel was found,about 45 min,far more better soluble in water as the parent drug paclitaxel,≥ 10 mM,122,less cytotoxic as the parent drug,92/8,stable,ratio of prodrug/paclitaxel ([3]; 66 hr): 89/11
CC(=O)O[C@H]1C(=O)[C@@]2(C)[C@H]([C@H](OC(=O)c3ccccc3)[C@]3(O)C[C@H](OC(=O)[C@H](O)[C@@H](NC(=O)c4ccccc4)c4ccccc4)C(C)=C1C3(C)C)[C@]1(OC(C)=O)CO[C@@H]1C[C@@H]2O [paclitaxel],–,–,–,–,–,–,–,–,–,–,–,–,–,–,–,–,–,–,–,solubility in water [4]: < 5 nM
